Results reported in a melting point compilation (Tetko et al.; mined from patent text by program, amines drawn as free bases though some values may be those of a salt).

`CCCCCCC(C)(C)c1ccc([C@@H]2CC(=O)C[C@H](C)C2)c(O)c1` (relative stereo) showed a melting point of 95 to 98 °C.
In the case of `CN(C)C=CC(=O)c1ccc(I)cc1`, the melting point was 117 to 118 °C.
For `CN(C)c1cc2c(cc1Cl)NC(=O)CC(c1cccc(-c3nc(CN4CCOCC4)cs3)c1)=N2`, the melting point was 138 to 143 °C.
With `O=C1CCC2(CN1)C(=O)C(=O)c1ccccc12` (stereo not drawn) the melting point was 227 to 228 °C.
`COC(=O)C(O)(c1cccc(C(F)(F)F)c1)c1cccc(C(F)(F)F)c1` gave a melting point of 69 to 70 °C.
Work on `Oc1cccc2nc(Cc3ccccc3)[nH]c12` yielded a melting point of 172 to 174 °C.
`CCOC(=O)CCn1cc(CN(C)C)n(C2CCc3ccccc3C2)c1=S` (stereo not drawn) gave a melting point of 128 to 130 °C.
Work on `O=C(NC1CCCCC1)c1c(O)c2cc(Cl)ccc2n(Cc2ccccc2)c1=O` yielded a melting point of 158 °C.
In the case of `COc1cc2c(cc1OC)[C@@H]1CN(C)CC[C@@H]1N=C2c1ccc([N+](=O)[O-])cc1` (relative stereo), the melting point was 194 to 195 °C.
Molecule `CC(C)(C)c1ccc(CCC(O)CCC2CCCCC2)cc1NC(=O)CC1c2ccccc2Oc2ccccc21` (stereo not drawn) has a melting point of 136 to 137 °C.
For `O=C1N(Cc2cn(C(c3ccccc3)(c3ccccc3)c3ccccc3)cn2)CCN1c1cccc(Cl)c1`, the melting point was 162 to 166 °C.
With `O=C(OCC(Cn1cnc2c(Cl)nc3ccccc3c21)OC(=O)c1ccccc1)c1ccccc1` (stereo not drawn) the melting point was 162 to 165 °C.
Molecule `CC(C)Cc1nc2cc(C(c3cccc(Cl)c3)n3ccnc3)ccc2[nH]c1=O` (stereo not drawn) has a melting point of 210 °C.
Molecule `CC(C)(C)OC(=O)N1CCN(C2CCN(c3ccc(N)cc3C#N)CC2)CC1` has a melting point of 172 °C.
Molecule `NCC(O)C(Oc1ccc(C(F)(F)F)cc1)c1ccccc1` (stereo not drawn) has a melting point of 120 to 122 °C.
`COc1ccc(-c2nc3ccc(OC(F)(F)F)cc3[nH]2)cc1` showed a melting point of 200 to 202 °C.
For `COc1ccc(Cn2cnc3c(-c4ccco4)nc(C(C)=O)nc32)cc1`, the melting point was 166 to 167 °C.
Molecule `O=[N+]([O-])c1cccc(Nc2nccc(-c3cccnc3)n2)c1` has a melting point of 212 to 213 °C.
Work on `CCn1c(=O)ccc2cnc(S(C)=O)nc21` (stereo not drawn) yielded a melting point of 202 to 203 °C.
Molecule `COC(=O)Cc1c(O)c(C)nn1C` has a melting point of 119 to 120 °C.
`O=C(Nc1ccc2cc(CN3CCCC3)cnc2c1F)c1ccc(-c2ccc(F)cc2)cc1` gave a melting point of 178 °C.
For `CCCOc1ccc(S(C)(=O)=O)cc1-c1nc2c(CC)n(CC3CC3)nc2c(=O)[nH]1`, the melting point was 233 to 234 °C.
For `Cc1[nH]ccc(=O)c1OCc1ccccc1`, the melting point was 162 to 164 °C.
For `N#Cc1cc(N)n(-c2c(Cl)cc(C(F)(F)F)cc2Cl)n1`, the melting point was 117 to 118 °C.
`Fc1cccc(Cl)c1-c1c(Cl)cc(Cl)nc1Cl` gave a melting point of 210 °C.
`CN1C(=O)c2ccc(-c3ccc(Cl)cc3)cc2C1=O` gave a melting point of 131 to 132 °C.
`CC1(C)CCC(C)(C)c2cc(-c3cc(-c4ccc(CN)cc4)on3)ccc21` showed a melting point of 138 to 143 °C.
For `CN1C(=O)CCC(C)(C)c2cc(N)ccc21`, the melting point was 119 to 122 °C.
In the case of `Cc1ncc([N+](=O)[O-])n1CCN1C(=O)NC2(C1=O)C1CC3CC(C1)CC2C3` (stereo not drawn), the melting point was 276 to 280 °C.
With `CN(C)c1nc2ccccc2nc1/C=C/c1nc(Cl)cc(N2CCCC2)n1` the melting point was 196 to 197 °C.
Molecule `Cc1ccc(S(=O)(=O)OCC2Cc3c(C)c(Cl)cc(C(C)C)c3O2)cc1` (stereo not drawn) has a melting point of 103 to 105 °C.
Molecule `CC(OC(C)(C)C(=O)O)c1cc(-c2ccc(Cl)cc2)no1` (single isomer, unassigned; (+)) has a melting point of 120 to 124 °C.
Molecule `CNS(=O)(=O)c1ccc(N)c(C(=O)N2CCNCC2)c1` has a melting point of 169 °C.
Work on `CCCc1c(SCCCOc2ccc3c(=O)cc(C(=O)O)oc3c2CCC)ccc(C(C)=O)c1N` yielded a melting point of 202 to 204 °C.
For `Cc1nc(N)nc(N)c1-c1cccc2ccccc12`, the melting point was 224 to 225 °C.
In the case of `CC1(C)CC(=O)C2=C(C1)NC1=C(C(=O)CC(C)(C)C1)C2c1ccc(Cl)c(Sc2ccccc2)c1`, the melting point was 202 to 204 °C.
`Cc1cc(C)cc(P(=O)(c2cc(C)cc(C)c2)c2ccc3ccccc3c2-c2c(P(=O)(c3cc(C)cc(C)c3)c3cc(C)cc(C)c3)ccc3ccccc23)c1` gave a melting point of 287 to 290 °C.
In the case of `CC(=O)Nc1nnc(C(F)(F)C(Cl)Cl)s1`, the melting point was 182 to 184 °C.
`Nc1ccc(-c2ncn(-c3ccc(OC(F)(F)F)cc3)n2)cc1` gave a melting point of 147 °C.
`Cc1ccc(S(=O)(=O)N2C(C)CN3C(=O)c4ccccc4C32c2ccc(F)cc2)cc1` (stereo not drawn) gave a melting point of 215 to 217 °C.
Molecule `O=C1OC(c2ccccc2)CC(O)=C1SCc1ccccc1` (stereo not drawn) has a melting point of 150 to 152 °C.
`CCOC(=O)C1=C(C)NC(=O)N(C(=O)OCC)C1c1cccc([N+](=O)[O-])c1Cl` (stereo not drawn) showed a melting point of 176 to 178 °C.
In the case of `CCCN1CC(c2cccc(O)c2)CC1C` (stereo not drawn), the melting point was 123 to 124 °C.
With `CC(C)c1ccc(OC(Cc2ccc(OCCNC(=O)c3ccc(-c4ccc(N(C)C)cn4)cc3)cc2)C(=O)O)cc1` (stereo not drawn) the melting point was 150 to 151 °C.
With `CCCCS(=O)(=O)c1c(-c2ccccc2)nn(C)c1-c1ccccc1` the melting point was 92.5 to 93 °C.
`Cc1ccc(C2N=C(c3ccccc3)NC3=C2CCc2c(-c4ccccc4)cc(-c4ccccc4)nc23)cc1` (stereo not drawn) gave a melting point of 128 to 133 °C.
In the case of `COC(=O)c1cc(CO)ccc1O`, the melting point was 66 to 67 °C.
With `O=c1ccc(-c2c(-c3ccccc3)nn3ccccc23)nn1C1CCN(Cc2ccccc2)CC1` the melting point was 184 to 185 °C.
